Test results from ChEMBL document CHEMBL1153827, “Novel aminopeptidase N inhibitors derived from antineoplaston AS2-5 (Part II)” (Bioorg Med Chem, 2009).

Key:
[1] = molecular target: T1, Aminopeptidase N (Sus scrofa, UniProt P15145); experiment: Inhibition of pig kidney microsomal aminopeptidase N after 30 mins by UV-VIS spectrophotometry
T1 sequence (P15145 whole entry): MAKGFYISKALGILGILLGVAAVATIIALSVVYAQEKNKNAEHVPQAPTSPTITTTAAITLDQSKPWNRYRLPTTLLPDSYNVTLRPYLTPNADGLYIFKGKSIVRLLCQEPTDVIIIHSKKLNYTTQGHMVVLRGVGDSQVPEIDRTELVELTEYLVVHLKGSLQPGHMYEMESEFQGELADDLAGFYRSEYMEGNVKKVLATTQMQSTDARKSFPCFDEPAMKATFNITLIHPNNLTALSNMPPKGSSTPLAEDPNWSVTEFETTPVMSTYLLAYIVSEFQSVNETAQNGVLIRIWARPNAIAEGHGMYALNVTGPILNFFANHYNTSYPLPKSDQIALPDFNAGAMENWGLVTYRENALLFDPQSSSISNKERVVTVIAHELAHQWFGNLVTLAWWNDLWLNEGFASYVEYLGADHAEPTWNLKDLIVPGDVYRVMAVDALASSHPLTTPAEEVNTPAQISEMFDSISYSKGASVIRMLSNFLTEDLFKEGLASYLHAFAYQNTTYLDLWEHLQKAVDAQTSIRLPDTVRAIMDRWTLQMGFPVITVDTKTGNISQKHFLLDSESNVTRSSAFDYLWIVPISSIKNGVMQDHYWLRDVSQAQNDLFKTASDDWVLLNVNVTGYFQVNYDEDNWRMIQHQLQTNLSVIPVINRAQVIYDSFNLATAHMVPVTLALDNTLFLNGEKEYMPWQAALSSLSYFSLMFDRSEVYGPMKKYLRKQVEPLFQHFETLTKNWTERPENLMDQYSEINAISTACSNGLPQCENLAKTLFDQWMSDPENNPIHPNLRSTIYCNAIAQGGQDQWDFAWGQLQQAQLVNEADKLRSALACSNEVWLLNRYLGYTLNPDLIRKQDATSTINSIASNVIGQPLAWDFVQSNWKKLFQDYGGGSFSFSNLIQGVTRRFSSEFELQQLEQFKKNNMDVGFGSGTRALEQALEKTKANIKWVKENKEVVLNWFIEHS

[2] = molecular target: 72 kDa type IV collagenase (Homo sapiens, UniProt P08253); experiment: Inhibition of MMP2
72 kDa type IV collagenase, sequence (P08253 whole entry): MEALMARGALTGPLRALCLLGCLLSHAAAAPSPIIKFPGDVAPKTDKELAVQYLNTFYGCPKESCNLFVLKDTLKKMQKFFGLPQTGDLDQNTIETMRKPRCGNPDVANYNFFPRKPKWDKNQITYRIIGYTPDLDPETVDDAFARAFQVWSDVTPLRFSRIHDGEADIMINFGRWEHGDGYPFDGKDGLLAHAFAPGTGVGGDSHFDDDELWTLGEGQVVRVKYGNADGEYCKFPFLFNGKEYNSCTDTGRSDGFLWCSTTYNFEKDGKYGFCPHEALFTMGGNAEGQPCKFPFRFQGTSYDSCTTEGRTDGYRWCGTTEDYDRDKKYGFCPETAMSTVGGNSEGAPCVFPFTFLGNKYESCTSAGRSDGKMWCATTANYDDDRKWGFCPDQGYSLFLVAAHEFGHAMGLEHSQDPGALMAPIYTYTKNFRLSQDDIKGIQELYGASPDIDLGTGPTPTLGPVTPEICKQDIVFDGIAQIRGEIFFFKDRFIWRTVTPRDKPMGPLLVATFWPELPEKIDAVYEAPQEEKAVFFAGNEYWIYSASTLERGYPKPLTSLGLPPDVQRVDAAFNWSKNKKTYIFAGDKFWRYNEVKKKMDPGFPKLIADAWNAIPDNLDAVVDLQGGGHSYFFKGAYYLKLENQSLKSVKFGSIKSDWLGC

IC50 ([1]; read-out: IC50) [µM]	IC50 ([2]; read-out: IC50) [µM]	IC50 [1]	IC50 [2]	SMILES
213	341	–	–	COC(=O)CC(NC(=O)CC[C@H](NC(=O)/C=C/c1ccc(OC)c(OC)c1)C(=O)NC(CC(=O)OC)C(=O)OC)C(=O)OC (stereo not given in full)
98.6	116	–	–	COc1ccc(/C=C/C(=O)N[C@@H](CCC(=O)O)C(=O)Nc2cc(F)cc(F)c2)cc1OC
56.8	71.4	–	–	COc1ccc(/C=C/C(=O)N[C@@H](CCC(=O)O)C(=O)Nc2ccccc2F)cc1OC
38.3	64.3	–	–	COc1ccc(/C=C/C(=O)N[C@@H](CCC(=O)O)C(=O)Nc2ccccc2Cl)cc1OC
80.5	121	–	–	COc1ccc(/C=C/C(=O)N[C@@H](CCC(=O)O)C(=O)Nc2cccc(Cl)c2)cc1OC
20.7	37.8	–	–	COc1ccc(/C=C/C(=O)N[C@@H](CCC(=O)O)C(=O)Nc2ccc(C)cc2)cc1OC
23.4	47.6	–	–	COc1ccc(/C=C/C(=O)N[C@@H](CCC(=O)O)C(=O)Nc2ccc(F)cc2)cc1OC
–	–	Not Active	Not Active	COc1ccc(/C=C/C(=O)N[C@@H](CCC(=O)Nc2cc(F)cc(F)c2)C(=O)Nc2cc(F)cc(F)c2)cc1OC
335	398	–	–	COc1ccc(/C=C/C(=O)N[C@@H](CCC(=O)Nc2ccc(C)cc2)C(=O)Nc2ccc(C)cc2)cc1OC
371	368	–	–	COc1ccc(/C=C/C(=O)N[C@@H](CCC(=O)Nc2ccc(F)cc2)C(=O)Nc2ccc(F)cc2)cc1OC
50.4	79.6	–	–	COC(=O)CNC(=O)[C@H](CCC(=O)O)NC(=O)/C=C/c1ccc(OC)c(OC)c1
55.1	83.2	–	–	COC(=O)C(C)NC(=O)[C@H](CCC(=O)O)NC(=O)/C=C/c1ccc(OC)c(OC)c1 (stereo not given in full)
207	256	–	–	COc1ccc(/C=C/C(=O)N[C@@H](CCC(=O)O)C(=O)NCC(C)C)cc1OC
405	471	–	–	COc1ccc(/C=C/C(=O)N[C@@H](CCC(=O)Nc2ccc(Cl)cc2)C(=O)Nc2ccc(Cl)cc2)cc1OC
578	–	–	Not Active	COc1ccc(/C=C/C(=O)N[C@@H](CCC(=O)Nc2ccc(Br)cc2)C(=O)Nc2ccc(Br)cc2)cc1OC
405	471	–	–	COc1ccc(/C=C/C(=O)N[C@@H](CCC(=O)Nc2ccccc2F)C(=O)Nc2ccccc2F)cc1OC
178	236	–	–	COc1ccc(/C=C/C(=O)N[C@@H](CCC(=O)O)C(=O)NCc2ccccc2)cc1OC
126	159	–	–	CNC(=O)[C@H](CCC(=O)O)NC(=O)/C=C/c1ccc(OC)c(OC)c1
184	211	–	–	CCNC(=O)[C@H](CCC(=O)O)NC(=O)/C=C/c1ccc(OC)c(OC)c1
237	284	–	–	CCCNC(=O)[C@H](CCC(=O)O)NC(=O)/C=C/c1ccc(OC)c(OC)c1
69.2	76.8	–	–	COC(=O)C(NC(=O)[C@H](CCC(=O)O)NC(=O)/C=C/c1ccc(OC)c(OC)c1)C(C)C (stereo not given in full)
58.1	71.2	–	–	COc1ccc(/C=C/C(=O)N[C@@H](CCC(=O)O)C(=O)Nc2ccc(Br)cc2)cc1OC
34.5	59.9	–	–	COc1ccc(/C=C/C(=O)N[C@@H](CCC(=O)O)C(=O)Nc2ccc(Cl)cc2)cc1OC
60.5	101	–	–	COC(=O)CC(NC(=O)[C@H](CCC(=O)O)NC(=O)/C=C/c1ccc(OC)c(OC)c1)C(=O)OC (stereo not given in full)
43.7	76.5	–	–	COC(=O)C(Cc1ccc(F)cc1)NC(=O)[C@H](CCC(=O)O)NC(=O)/C=C/c1ccc(OC)c(OC)c1 (stereo not given in full)
